Earlier results, collected in US20040156894A1, “Use of edible acids in fast-dispersing pharmaceutical solid dosage forms” (priority 2003, published 2004).
In brackets after ≈: the same amount, converted by molar mass.

water solubility [µg/mL] | Compound
< 1000 | CN1C(C(=O)Nc2ccccn2)=C(O)c2ccccc2S1(=O)=O [piroxicam]
4 (≈ 12.7 µM) | CS(=O)(=O)c1ccc(C2=C(c3ccccc3)C(=O)OC2)cc1 [rofecoxib]
